This passage reports IC50 results from patent US9133228B2, “Guanidinyl-substituted polyamides useful for treating human papilloma virus” (Nanovir, LLC, priority 2011, dated 2015).

Assay type in all cases: cell-based, Human papilloma virus
For one test, the system named is HPV18. Kind of test: Inhibition of viral replication in cells that maintain HPV18 DNA, viral DNA quantified by real-time PCR. As to conditions: cells maintaining HPV18 cultured 72 hours with polyamide; vs DMSO control; highest dose tested 10 μM. An excerpt:
(§1) Table 1a lists a number of exemplary polyamides synthesized in accordance with the present invention. The HPLC/MW values given in Table 1b were obtained using low resolution high pressure liquid chromatography/mass spectrometry (LR HPLC/MS), which provides moderate precision masses of single isotopomers rather than average molecular weights or exact masses. Table 2 presents a summary of measured IC50 values of certain of these polyamides against HPV16, HPV18 and HPV31. The IC50 is the concentration of compound required for 50% inhibition of viral replication in vitro. The polyamides were tested in cells that maintain HPV16, HPV18 or HPV31 DNA. Cells maintaining the selected HPV were cultured for 72 hours in the presence of the polyamide. Viral DNA was then quantified using real-time PCR and compared to vehicle (DMSO)-treated control cultures. […] Table 3 presents a summary of measured IC50 and IC90 values of certain of these polyamides against HPV16, HPV18 and HPV31.

Another test concerns HPV31. The experiment in a line: Inhibition of viral replication in cells that maintain HPV31 DNA, viral DNA quantified by real-time PCR. As to conditions: cells maintaining HPV31 cultured 72 hours with polyamide; vs DMSO control; highest dose tested 10 μM.
Text: as §1

The subject of another test is HPV16. The experiment in a line: Inhibition of viral replication in cells that maintain HPV16 DNA, viral DNA quantified by real-time PCR. As to conditions: cells maintaining HPV16 cultured 72 hours with polyamide; vs DMSO control; highest dose tested 10 μM.
Text: as §1
In general terms: In qPCR the cycle at which signal appears reflects the starting amount.

SMILES strings stand for the structures. pIC50: −log10 of the molar value.

Usually pIC50 stands for −log10 of the IC50, conventionally taken in molar units. Low values mean a large IC50, high ones a small IC50. On to `CN(CCCN)CCCNC(=O)CCNC(=O)c1cc(NC(=O)c2cc(NC(=O)c3cc(NC(=O)c4cc(NC(=O)CCNC(=O)c5cc(NC(=O)c6cc(NC(=O)CCCNC(=O)c7cc(NC(=O)c8cc(NC(=O)c9cc(NC(=O)CCNC(=O)c%10cc(N=C(N(C)C)N(C)C)cn%10C)cn9C)cn8C)cn7C)cn6C)cn5C)cn4C)cn3C)cn2C)cn1C` [NV1082, TMG-PyβPyPyPy-γ-PyPyβPyPyPyPyβ-Ta•3TFA], for which the negative logarithm of the IC50 (pIC50) in the test with HPV18, with HPV31 and with HPV16 was less than 5.00 in each case.

As for `CN(C)CCCNC(=O)CCNC(=O)c1cc(NC(=O)c2cc(NC(=O)c3cc(NC(=O)c4cc(NC(=O)CCNC(=O)c5cc(NC(=O)c6cc(NC(=O)CCCNC(=O)c7cc(NC(=O)c8cc(NC(=O)c9cc(NC(=O)CCNC(=O)c%10cc(NC(=O)c%11cc(N=C(N(C)C)N(C)C)cn%11C)cn%10C)cn9C)cn8C)cn7C)cn6C)cn5C)cn4C)cn3C)cn2C)cn1C` [NV1083, TMG-PyPyβPyPyPy-γ-PyPyβPyPyPyPyβ-Dp•2TFA], the pIC50 in the test with HPV18 is 6.03; with HPV31 it was 5.51; with HPV16 it was 5.62.

`CN(CCCN)CCCNC(=O)CCNC(=O)c1cc(NC(=O)c2cc(NC(=O)c3cc(NC(=O)c4cc(NC(=O)CCNC(=O)c5cc(NC(=O)c6cc(NC(=O)CCCNC(=O)c7cc(NC(=O)c8cc(NC(=O)c9cc(NC(=O)CCNC(=O)c%10cc(NC(=O)c%11cc(N=C(N(C)C)N(C)C)cn%11C)cn%10C)cn9C)cn8C)cn7C)cn6C)cn5C)cn4C)cn3C)cn2C)cn1C` [NV1084, TMG-PyPyβPyPyPy-γ-PyPyβPyPyPyPyβ-Ta•3TFA]: the negative logarithm of the IC50 (pIC50) with HPV18 was 5.98; in the test on HPV31, 5.14; in the test on HPV16 it was 5.72.

In the case of `CN(CCCN)CCCNC(=O)CCNC(=O)c1cc(NC(=O)c2cc(NC(=O)c3cc(NC(=O)CCNC(=O)c4cc(NC(=O)c5cc(NC(=O)c6cc(NC(=O)CCNC(=O)c7cc(NC(=O)c8cc(NC(=O)CCCNC(=O)c9cc(NC(=O)c%10cc(NC(=O)CCNC(=O)c%11nc(NC(=O)c%12cc(NC(=O)c%13cc(NC(=O)CCNC(=O)c%14cc(NC(=O)c%15cc(N=C(N(C)C)N(C)C)cn%15C)cn%14C)cn%13C)cn%12C)cn%11C)cn%10C)cn9C)cn8C)cn7C)cn6C)cn5C)cn4C)cn3C)cn2C)cn1C` [NV1085, TMG-PyPyβPyPyImβPyPy-γ-PyPyβPyPyPyβPyPyPyβ-Ta•4TFA], the pIC50 in the test on HPV18 is 7.39; in the test on HPV31 it was 7.49; with HPV16, 7.54.

For the compound `CN(C)CCCNC(=O)CCNC(=O)c1cc(NC(=O)c2cc(NC(=O)c3cc(NC(=O)CCNC(=O)c4cc(NC(=O)c5cc(NC(=O)c6cc(NC(=O)CCNC(=O)c7cc(NC(=O)c8cc(NC(=O)CCCNC(=O)c9cc(NC(=O)c%10cc(NC(=O)CCNC(=O)c%11nc(NC(=O)c%12cc(NC(=O)c%13cc(NC(=O)CCNC(=O)c%14cc(NC(=O)c%15cc(N=C(N(C)C)N(C)C)cn%15C)cn%14C)cn%13C)cn%12C)cn%11C)cn%10C)cn9C)cn8C)cn7C)cn6C)cn5C)cn4C)cn3C)cn2C)cn1C` [NV1086, TMG-PyPyβPyPyImβPyPy-γ-PyPyβPyPyPyβPyPyPyβ-Dp•3TFA], the negative-log IC50 (pIC50) was 7.21 with HPV18, 7.80 in the test on HPV31 and 7.37 in the test on HPV16.

As to `CN(C)CCCNC(=O)CCNC(=O)c1cc(NC(=O)CCNC(=O)c2cc(NC(=O)c3cc(NC(=O)c4cc(NC(=O)CCNC(=O)c5cc(NC(=O)c6cc(NC(=O)CCNC(=O)c7cc(NC(=O)CCCNC(=O)c8nc(NC(=O)c9cc(NC(=O)CCNC(=O)c%10cc(NC(=O)c%11cc(NC(=O)CCNC(=O)c%12cc(NC(=O)c%13cc(NC(=O)c%14cc(N=C(N(C)C)N(C)C)cn%14C)cn%13C)cn%12C)cn%11C)cn%10C)cn9C)cn8C)cn7C)cn6C)cn5C)cn4C)cn3C)cn2C)cn1C` [NV1088, TMG-PyPyPyβPyPyβPyIm-γ-PyβPyPyβPyPyPyβPyβ-Dp•3TFA], the pIC50 in the test on HPV18 was 7.46; in the test on HPV31, 7.85; with HPV16, 7.70.
